Results: patent US10105313B2, “Uses of rose pigment compounds” (SUNTORY HOLDINGS LIMITED, priority 2014, dated 2018)
≈ marks a conversion by molar mass, not a printed value. Entries after “also recorded” stand apart in the source; their conditions may differ.

How the values were obtained:
Assay type in all cases: biochemical
[1] = biological target: hyaluronidase (Bos taurus, UniProt Q2YDK3); assay: Hyaluronidase inhibition test; conditions: for inhibition at 20 µg/mL: test concentration 20 μg/ml; for inhibition at 20 µg/mL / inhibition at 40 µg/mL / inhibition at 80 µg/mL: read-out: Percent hyaluronidase inhibition (%); for inhibition at 40 µg/mL: test concentration 40 μg/ml; for hyaluronidase inhibitory activity (in words): statement in the text
Sequence of hyaluronidase (Q2YDK3 entry or part of it): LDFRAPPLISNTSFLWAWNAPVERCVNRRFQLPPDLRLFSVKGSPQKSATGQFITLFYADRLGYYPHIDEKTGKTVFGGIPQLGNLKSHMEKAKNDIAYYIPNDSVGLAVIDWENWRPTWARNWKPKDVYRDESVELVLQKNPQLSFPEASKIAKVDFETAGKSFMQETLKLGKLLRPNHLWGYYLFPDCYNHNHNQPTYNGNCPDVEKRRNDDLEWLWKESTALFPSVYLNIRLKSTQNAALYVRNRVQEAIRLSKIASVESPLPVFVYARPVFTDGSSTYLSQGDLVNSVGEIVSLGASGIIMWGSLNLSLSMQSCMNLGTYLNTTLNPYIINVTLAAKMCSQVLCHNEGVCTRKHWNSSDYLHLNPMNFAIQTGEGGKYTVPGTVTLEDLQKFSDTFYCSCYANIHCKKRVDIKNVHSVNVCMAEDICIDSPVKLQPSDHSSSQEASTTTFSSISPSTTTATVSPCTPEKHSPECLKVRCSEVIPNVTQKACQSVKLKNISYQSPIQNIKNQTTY
Procedure: Tests for hyaluronidase inhibition of the extract prepared in Example 2 (hereinafter referred to as the “blue rose petal extract”), the HP-20 column fractions of the blue rose petal extract (60% acetonitrile fractions) and rosadelphin A1 were carried out in accordance with a modified version of the method described by Yumie Maeda et al. in Shokukin Eiseigaku Zasshi (Journal of the Food Hygiene Society of Japan) 31(3), 233-237 (1990). Hyaluronic acid is decomposed by hyaluronidase to give N-acetylhexosamine. To measure the hyaluronidase inhibitory activity, the reducing terminal N-acetylglucosamine was quantified in terms of absorbance due to color development as labeled by p-dimethylaminobenzaldehyde (product of Wako Pure Chemical Industries, Ltd. which is hereinafter abbreviated as p-DAB).
A sample solution (40 μL) in 10% DMSO was mixed with 20 μL of 1000 U/mL hyaluronidase (product of Sigma) dissolved in 0.1 M acetate buffer (pH 4.0) and the mixture was preheated at 37° C. for 20 minutes. To the heated mixture, 40 μL of 0.5 mg/mL Compound 48/80 (product of Sigma) dissolved in the same buffer was added and the resulting mixture was allowed to settle at 37° C. for 20 minutes undisturbed until the hyaluronidase was activated. To the solution, 100 μL of a solution of 0.8 mg/mL potassium hyaluronate was added to give a final concentration of 0.4 mg/mL and reaction was effected at 37° C. for 40 minutes; thereafter, 40 μL of 0.4 N sodium hydroxide in solution was added and the mixture was cooled with ice to quench the reaction. To the reaction mixture, 40 μL of 0.8 M boric acid in solution adjusted to pH 9.1 with 6 N NaOH was added and the resulting mixture was boiled at 100° C. for 3 minutes. The mixture was then cooled to room temperature in ice bath; to the cooled mixture, 1.2 mL of 10 mg/mL p-dimethylaminobenzaldehyde (p-DAB) in solution was added while it was shielded from light and after reaction was effected at 37° C. for 20 minutes, the absorbance at 585 nm (A585) was measured. The hyaluronidase inhibitory activity of the sample was expressed in terms of percent inhibition calculated from the following formula: Percent inhibition (%)={1−(a−b)/(c−d)}×100
a: A585 of the sample solution to which the enzyme was added
b: A585 of the sample solution to which no enzyme was added
c: A585 of the control solution to which the enzyme was added
d: A585 of the control solution to which no enzyme was added.
A positive control was prepared by adding not the sample solution, but 800 μg/ml (1.56 mM as molar concentration) of sodium chromoglycate (product of Sigma which is hereinafter abbreviated as DSCG) in an amount of 40 μL to give a test concentration of 160 μg/ml.

[2] = test system: collagenase Type IV; assay: Collagenase inhibition test; conditions: for collagenase inhibitory activity (in words): statement in the text
Procedure: The blue rose petal extract, fractions thereof as products of treatment on a column (60% acetonitrile fractions), rosadelphin A1, rosacyanin A1, and tellimagrandin 1 were subjected to a collagenase inhibition test in accordance with a modified version of the method described in a document (Wunsch et al., Hoppe Seylers Z Physiol Chem., 333, 149-51 (1963)). For details, see below.
An enzyme solution was prepared by dissolving […] of collagenase Type IV (product of Sigma) in 1 mL of dissolved water to give a concentration of 100 μg/mL (55.1 units/mL) and diluted 50 folds just before use. A substrate solution was prepared by dissolving PZ-peptide (4-phenylazo-benzyloxycarbonyl-Pro-Leu-Gly-Pro-D-Arg-OH) (Pz-Pro-Leu-Gly-Pro-D-Arg-OH; product of Sigma) in a […] calcium chloride containing tris-HCl buffer (pH 7.1) to give a concentration of 0.5 μg/mL. To 20 μL of a solution of sample dissolved in 10% DMSO, 20 μL of the enzyme solution and 160 μL of the substrate solution were added and the mixture was subjected to reaction at 37° C. for 30 minutes. Subsequently, 400 μL of a 25 mM citric acid solution was added to quench the reaction and Pz-Pro-Leu in the reaction mixture was extracted with 2 mL of ethyl acetate. The resulting ethyl acetate layer was measured for absorbance at a wavelength of 320 nm, with ethyl acetate being used as a control. The inhibitory activity of each sample was calculated in terms of the percent inhibition determined by the following formula: Percent collagenase inhibition (%)={1−(a−b)/(c−d)}×100 […]
a: Absorbance after […] reaction in the presence of added sample b: Absorbance after […] reaction in the presence of added sample c: Absorbance after 30 min reaction in the absence of added sample d: Absorbance after 0 min reaction in the absence of added sample.

[3] = biological target: T1, elastase (Sus scrofa, UniProt P00772); assay: Elastase inhibition test; conditions: for elastase inhibiting activity (in words): statement in the text
T1 construct: purchased Sigma
T1 sequence (P00772 27-266): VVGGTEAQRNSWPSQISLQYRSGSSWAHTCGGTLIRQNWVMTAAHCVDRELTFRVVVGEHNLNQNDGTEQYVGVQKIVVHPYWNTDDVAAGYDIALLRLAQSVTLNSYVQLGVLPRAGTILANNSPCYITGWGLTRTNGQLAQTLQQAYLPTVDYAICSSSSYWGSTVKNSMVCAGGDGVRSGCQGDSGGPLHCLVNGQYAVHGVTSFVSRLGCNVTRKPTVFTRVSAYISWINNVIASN
Procedure: The blue rose petal extract, fractions thereof as products of treatment on a column (60% acetonitrile fractions), rosadelphin A1, rosacyanin A1, and tellimagrandin 1 were subjected to an elastase inhibition test that was performed by the following method.
An enzyme solution was prepared by dissolving 0.1 ml of elastase (product of Sigma) in 0.2 M Tris buffer at pH 8.0 (hereinafter referred to as a Tris buffer) to give a concentration of 0.05 units/mL and diluted 100 folds just before use. A substrate solution was prepared by dissolving N-Succinyl-Ala-Ala-Ala-p-nitroanilide (product of Sigma) in a Tris buffer to give a concentration of 4 mM. To a 96-well plate, 50 μL of a solution of each sample dissolved in 10% DMSO and 50 μL of the enzyme solution were added and after mixing them with a plate shaker, the resulting mixture was preheated at 25° C. for 10 minutes. Subsequently, 100 μL of the substrate solution was added and after mixing with a plate shaker, reaction was carried out at 25° C. for 30 minutes and immediately thereafter, the liberation of p-nitroaniline was assayed by measuring the absorbance at a wavelength of 405 nm (hereinafter designated as A405). A405 measurement was also performed for a blank of sample solution that was prepared by adding a Tris buffer in place of the substrate solution, as well as for a control solution that was prepared by adding 10% DMSO in place of the sample solution. The inhibitory activity of each sample was calculated in terms of the percent inhibition determined by the following formula: Percent elastase inhibition (%)=[(f−e)−{(b−a)−(d−c)}]/(f−e)×100 […]
a: A405(0 min) of the sample solution for enzymatic reaction b: A405(30 min) of the sample solution for enzymatic reaction c: A405(0 min) of the blank of sample solution d: A405(30 min) of the blank of sample solution e: A405(0 min) of the control solution f: A405(30 min) of the control solution.

[4] = Table 6, test concentration 40 μg/ml
[5] = Table 3, test concentration 80 μg/ml
[6] = Table 8, test concentration 40 μg/mL
[7] = Table 8, test concentration 80 μg/mL
[8] = Table 8, test concentration 160 μg/mL

O=C([O-])c1cc(=O)c2c(OCC(O)COc3cccc4oc(C(=O)[O-])cc(=O)c34)cccc2o1.[Na+].[Na+] [DSCG, sodium chromoglycate, reference compound]
Percent hyaluronidase inhibition (%) ([1]; Table 3, positive control at 160 μg/ml): * Percent inhibition by 160 μg/ml DSCG: 22.3%

CC(C)CCP(=O)([O-])NCC(=O)N1CCCC1C(=O)NC(C)C(=O)[O-].[K+].[K+] [IP304, isoamylphosphonyl-Glycyl-L-Prolyl-L-Alanine, dipotassium salt, reference compound]
Percent collagenase inhibition (%) ([2]; Table 5, test concentration 80 μg/mL): * Percent inhibition by 80 μg/mL IP304: 84.1%
Percent collagenase inhibition (%) [2, 4]: *Percent inhibition by 40 μg/ml IP304: 69.7%

O=C(OC1C(O)OC2COC(=O)c3cc(Oc4c(-c5ccc(O)c(O)c5)[o+]c5cc(O)cc6c5c4-c4c(C(=O)O)cc(O)c(O)c4O6)c(O)c(O)c3-c3c(cc(O)c(O)c3O)C(=O)OC2C1OC(=O)c1cc(O)c(O)c(O)c1)c1cc(O)c(O)c(O)c1 (centres unmarked) [Rosacyanin A1, rosacyanin A1]
Percent collagenase inhibition (%) [2, 4]: 52.0%
collagenase inhibitory activity (in words) [2]: greater activity than the blue rose petal extract
elastase inhibiting activity (in words) [3]: strong activity
inhibition at 20 µg/mL ([1]; Table 3): 24.7%
inhibition at 40 µg/mL ([1]; Table 3): 49.1%
inhibition at 80 µg/mL [1, 5]: 93.2%
hyaluronidase inhibitory activity (in words) [1]: comparable activity to rosadelphin A1
hyaluronidase inhibitory activity (in words) ([1]; listed as rosacyanin A1): strong hyaluronidase inhibitory activity

O=C(OC1C(O)OC2COC(=O)c3cc(Oc4c(-c5cc(O)c(O)c(O)c5)[o+]c5cc(O)cc6c5c4-c4c(C(=O)O)cc(O)c(O)c4O6)c(O)c(O)c3-c3c(cc(O)c(O)c3O)C(=O)OC2C1OC(=O)c1cc(O)c(O)c(O)c1)c1cc(O)c(O)c(O)c1 (centres unmarked) [Rosadelphin A1, rosadelphin A1]
Percent collagenase inhibition (%) [2, 4]: 42.3%
collagenase inhibitory activity (in words) [2]: greater activity than the blue rose petal extract
Percent elastase inhibition (%) [3, 6]: 31.8%
inhibition at 40 µg/mL ([3]; Table 8, test concentration 40 μg/mL, read-out: Percent elastase inhibition (%)): 50.7%
Percent elastase inhibition (%) [3, 7]: 40.4%
inhibition at 80 µg/mL ([3]; Table 8, test concentration 80 μg/mL, read-out: Percent elastase inhibition (%)): 58.1%
Percent elastase inhibition (%) [3, 8]: 49.4%
inhibition at 160 µg/mL ([3]; Table 8, test concentration 160 μg/mL, read-out: Percent elastase inhibition (%)): 62%
elastase inhibiting activity (in words) [3]: comparable or more than comparable activity to rosacyanin A1
elastase inhibiting activity (in words) ([3]; listed as rosadelphin A1): strong activity in a concentration dependent manner
inhibition at 20 µg/mL ([1]; Table 3): 24.4%
inhibition at 40 µg/mL ([1]; Table 3): 48.2%
inhibition at 80 µg/mL [1, 5]: 95.3%
hyaluronidase inhibitory activity (in words) ([1]; listed as rosadelphin A1): strong activity in a concentration dependent manner; also recorded: strong hyaluronidase inhibitory activity

O=C(O[C@H]1[C@@H]2OC(=O)c3cc(O)c(O)c(O)c3-c3c(cc(O)c(O)c3O)C(=O)OC[C@H]2OC(O)[C@@H]1OC(=O)c1cc(O)c(O)c(O)c1)c1cc(O)c(O)c(O)c1 (some centres unmarked) [Tellimagrandin 1, tellimagrandin 1, reference compound]
Percent collagenase inhibition (%) [2, 4]: 42.7%
collagenase inhibitory activity (in words) [2]: greater activity than the blue rose petal extract
Percent elastase inhibition (%) [3, 6]: 5.9%
Percent elastase inhibition (%) [3, 7]: 4.6%
Percent elastase inhibition (%) [3, 8]: 6.5%
elastase inhibiting activity (in words) [3]: weak activity
elastase inhibiting activity (in words) ([3]; listed as tellimagrandin 1): little activity
IC50 (hyaluronidase inhibition) ([1]; Table 3): 196.5 µg/mL (≈ 250 µM)
Percent hyaluronidase inhibition (%) [1, 5]: 64.8%
hyaluronidase inhibitory activity (in words) [1]: also active, though not so active as rosadelphin A1
